Columns and labels:
HIV-1JRFL = HIV-1JRFL infection of monocyte-derived macrophages, p24 ELISA; format: cell-based; conditions: for concentration at which significant inhibition of infection was exhibited (as low as): HIV-1JRFL, monocyte-derived macrophages; for inhibition of HIV-1JRFL infection of monocyte-derived macrophages (p24): peptide 1 hr before virus, p24 after 72 hr, FIG. 3
Experimental: Monocyte-derived macrophages were treated with the designated concentrations of the indicated peptide for a period of 1 hr prior to addition of HIV-1JRFL. After 2 hr, cells were washed, and viral replication was determined after 72 hr by p24 analysis. Results are representative of 4 independent experiments.
(§1) PBMCs were obtained from whole blood of normal donors and isolated by Ficoll-Paque Plus (Pharmacia Biotech, Piscataway, N.J.) density gradient centrifugation, and plated at a cell density of 2×10^6 cells/ml. Monocyte-derived macrophages (MDM) were generated from adherent human peripheral blood mononuclear cells by culture for 7 days with M-CSF (100 ng/ml). Cultures were maintained in RPMI-1640 medium (Life Technologies, Rockville, Md.) supplemented with 10% heat-inactivated endotoxin-free FCS (Hyclone, Logan, Utah), 10 μg/ml gentamicin, and 1 mM glutamine. Cells were treated with designated concentrations of the exemplary peptides 15K or 15D, and after 1 hr cells were infected with HIV-1IIIB (T cell tropic) or HIV-1JRFL (monocyte tropic) at an multiplicity of infection (MOI) of 0.1. After 2 hr, cells were washed, and cultured for additional 48-72 hr, followed by analysis of HIV replication as determined by quantification of accumulated p24 in the supernatant. The production of p24 was determined by conventional sandwich ELISA, using ELISA plates pre-coated with capture anti-p24 antibodies provided by the AIDS Vaccine Program (SAIC Frederick, NCI-FCRDC, Frederick, Md.). The captured p24 antigen was detected using rabbit anti-HIV-1 anti-p24 antibody, and a secondary goat anti-rabbit IgG (peroxidase-labeled) antibody. The captured p24 protein was detected using a 3,3′,5,5′-tetramethylbenzidine and hydrogen peroxide detection system (KPL Laboratories, Gaithersburg, Md.). The reaction was read spectrophotometrically at 450 nm. No cytotoxicity was detectable following treatment of PBMC with the peptides even at a concentration of 100 μg/ml.
The results described in the preceding Examples indicate that the 15K and 15D peptides effectively block the ability of CCR5 to serve as a receptor to mediate chemotactic responses. Additional experiments were thus carried out to determine the capacity of these peptides to inhibit coreceptor activity mediating cellular entry and infection by HIV-1JRFL (a monocyte-tropic HIV strain), using peripheral blood monocyte-derived macrophages.

HIV-1IIIB = HIV-1IIIB infection of PBMC, p24 ELISA; format: cell-based; conditions: for concentration at which significant inhibition of HIV-1 infection was detected (as low as): HIV-1IIIB, PBMC; for inhibition of T cell-tropic HIV-1 infection of PBMCs (p24): peptide 1 hr before HIV-1IIIB, p24 after 48 hr, FIG. 4
Experimental: Peripheral blood mononuclear cells were treated with designated concentrations of peptide for a period of 1 hr prior to addition of HIV-1IIIB. After 2 hr, cells were washed, and viral replication was determined after 48 hr by analysis of p24 levels. Results are representative of 4 independent experiments.
as §1
In view of the foregoing binding inhibition studies, and considering the homology between the 15K and 15D peptides and the CXCR4 ligand SDF-1α, it was further undertaken to determine the capacity of the synthetic peptides to inhibit CXCR4 co-receptor function. In particular, experiments were carried out to assess the ability of 15K or 15D to alter the infection of PBMCs with the T cell-tropic […] strain. […] Significant inhibition of HIV-1 infection was detected with concentrations of peptides as low as 10 ng/ml.

CCR5 = CCR5 (Homo sapiens, UniProt P51681); experiment: Binding of anti-CCR5 antibody 2D7 to HEK293/CCR5 cells (flow cytometry); set-up: expressed in transfected cells; host or cells: HEK-293; conditions: 0.1 mM peptide, 45 min 22° C.
CCR5, sequence (P51681 whole entry): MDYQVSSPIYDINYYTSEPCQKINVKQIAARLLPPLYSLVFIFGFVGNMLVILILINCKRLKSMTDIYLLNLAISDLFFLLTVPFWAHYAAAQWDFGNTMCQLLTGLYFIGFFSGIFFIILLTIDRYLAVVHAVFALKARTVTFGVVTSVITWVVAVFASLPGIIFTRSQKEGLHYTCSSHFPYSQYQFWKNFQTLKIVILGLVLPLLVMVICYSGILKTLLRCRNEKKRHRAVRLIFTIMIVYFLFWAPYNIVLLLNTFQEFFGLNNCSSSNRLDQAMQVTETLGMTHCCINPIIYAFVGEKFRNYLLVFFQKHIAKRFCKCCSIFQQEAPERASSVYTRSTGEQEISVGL
Experimental: CEMx174 cells were pelleted and resuspended at 10^6 cells/ml in PBS containing 1% BSA and 0.1% sodium azide (FACS buffer). Cells were then preincubated with designated concentrations of peptides or SDF-1-α (1 μg/ml) at 22° C. for 60 min. FITC-labeled anti-human CXCR4 antibody (clone 12G5, BD PharMingen, San Diego, Calif.) was added to the cells per the manufactures instructions and further incubated at 22° C. for 40 minutes. Cells were extensively washed with FACS buffer and analyzed using a FACS Calibur flowcytometer (Becton Dickinson). HEK/CCR5 cells were suspended in Dulbecco's PBS containing 1% FCS and 0.05% NaN3 (10^4 cells in 100 μl) and incubated with or without 5 μg of MIP-1β (PeproTech, Rocky Hill, N.J.), 0.1 mM peptide 15D or 15K for 45 min at 22° C. Cells were then treated with FITC-conjugated anti-human CCR5 antibody (2D7; BD PharMingen, San Diego, Calif.), and incubated for 30 min at 22° C. Cells were washed twice, and analyzed using a FACScan flow cytometer (Becton Dickinson Immunocytometry Systems, San Jose, Calif.).
The effect of the exemplary peptides 15K and 15D on the binding of 2D7 antibodies to CCR5 was assayed to further evaluate the mechanism of anti-coreceptor activity of the peptides. […]
The effects of peptides 15D and 15K on 2D7 antibody binding to HEK293/CCR5 cells were analyzed by flow cytometry.

Row | Substance | concentration at which significant inhibition of infection was exhibited (as low as) (HIV-1JRFL) [ng/mL] | inhibition of HIV-1JRFL infection of monocyte-derived macrophages (p24) (HIV-1JRFL) | concentration at which significant inhibition of HIV-1 infection was detected (as low as) (HIV-1IIIB) [ng/mL] | inhibition of T cell-tropic HIV-1 infection of PBMCs (p24) (HIV-1IIIB) | anti-HIV-1 activity of 15D in comparison with 15K (HIV-1IIIB; some experiments, data not shown, virus strain not stated) | effect on 2D7 anti-CCR5 antibody binding (CCR5)
1 | I R K A H C N I S R A D W N D [Peptide 15D] | 10 | significantly reduced monocyte lineage target cell infection | 10 | significantly reduced HIV-1 infection | higher anti-HIV-1 activity | No significant effect
2 | IRKAHCNISRAKWND [Peptide 15K] | 10 | significantly reduced monocyte lineage target cell infection | 10 | significantly reduced HIV-1 infection | – | No significant effect

— patent US20060116325A1, “Methods and compositions for inhibiting hiv-coreceptor interactions” (priority 2001, published 2006)
